Our source for the IC50 and Activity values is ChEMBL document CHEMBL5584217, “Synthesis, biological activity evaluation and mechanism of action of novel bis-isatin derivatives as potential anti-liver cancer agents” (Bioorg Med Chem Lett, 2024).

Activity calls are given as the source filed them. The rule behind the calls is not given here.

Data set [1] can be described thus: Antiproliferative activity against mouse AML12 cells assessed as inhibition of cell growth incubated for 48 hrs by CCK-8 method. The data set is classed as toxicity, cell-based.
The test system of data set [2] is HuH-1. Briefly: Antiproliferative activity against human HuH-1 cells assessed as inhibition of cell growth incubated for 48 hrs by CCK-8 method. Type of data set: functional, cell-based. Particulars: HuH-1, 48 h.
The subject of data set [3] is HepG2. Briefly: Antiproliferative activity against human HepG2 cells assessed as inhibition of cell growth incubated for 48 hrs by CCK-8 method. The data set is classed as functional, cell-based. The note with it: HepG2, 48 h. (In general: Formazan colour is commonly taken as a measure of viable cells.)
The test system of data set [4] is Huh-7. As to the kind of experiment: Antiproliferative activity against human Huh-7 cells assessed as inhibition of cell growth incubated for 48 hrs by CCK-8 method. Particulars: Huh-7, 48 h. The data set is classed as functional, cell-based.
The test system of data set [5] is MHCC97H. As to the kind of experiment: Antiproliferative activity against human MHCC97H cells assessed as inhibition of cell growth incubated for 48 hrs by CCK-8 method. The data set is classed as functional, cell-based.
The subject of data set [6] is Hepa 1-6. Briefly: Antiproliferative activity against mouse Hepa1-6 cells assessed as inhibition of cell growth incubated for 48 hrs by CCK-8 method. Type of data set: functional, cell-based. Particulars: Hepa1-6, 48 h.
Data set [7] deals with H22. As to the kind of experiment: Antiproliferative activity against mouse H22 cells assessed as inhibition of cell growth incubated for 48 hrs by CCK-8 method. Type of data set: functional, cell-based. The note with it: H22, 48 h.
For data set [8], the system named is HuH-6. As to the kind of experiment: Antiproliferative activity against human HuH-6 cells assessed as inhibition of cell growth incubated for 48 hrs by CCK-8 method. The data set is classed as functional, cell-based. The note with it: HuH-6, 48 h.
Data set [9] is described as follows: Toxicity in NCG mouse assessed as effect on AST level at 15 mg/kg, ip measured after 14 days. Type of data set: organism-based. Particulars: in vivo, 336 h, time 14 day.
The nature of data set [10]: Toxicity in NCG mouse assessed as effect on UREA level at 15 mg/kg, ip measured after 14 days. Type of data set: organism-based. The note with it: in vivo, 336 h, time 14 day.
Data set [11] is described as follows: Toxicity in NCG mouse assessed as pathological change in lung at 15 mg/kg, ip measured after 14 days by H and E staining based analysis. Type of data set: organism-based. The note with it: in vivo, 336 h, time 14 day.
Data set [12] can be described thus: Toxicity in NCG mouse assessed as pathological change in spleen at 15 mg/kg, ip measured after 14 days by H and E staining based analysis. The data set is classed as organism-based. The note with it: in vivo, 336 h, time 14 day.
Data set [13] can be described thus: Toxicity in NCG mouse assessed as pathological change in heart at 15 mg/kg, ip measured after 14 days by H and E staining based analysis. The data set is classed as organism-based. Particulars: in vivo, 336 h, time 14 day.
The nature of data set [14]: Toxicity in NCG mouse assessed as pathological change in tumor at 15 mg/kg, ip measured after 14 days by H and E staining based analysis. The data set is classed as organism-based. The note with it: in vivo, 336 h, time 14 day.
Data set [15] can be described thus: Toxicity in NCG mouse assessed as effect on MCH level at 15 mg/kg, ip measured after 14 days. Type of data set: organism-based. The note with it: in vivo, 336 h, time 14 day.
Data set [16] concerns HuH-1. As to the kind of experiment: Antitumor activity against human HuH-1 cells xenografted in NCG mouse model assessed as reduction in tumor size at 15 mg/kg, ip administered every other day for 14 days. Particulars: time 14.0 day. Type of data set: functional, organism-based.
Data set [17] in a line: Toxicity in NCG mouse assessed as effect on ALB level at 15 mg/kg, ip measured after 14 days. Type of data set: organism-based. The note with it: in vivo, 336 h, time 14 day.
The nature of data set [18]: Toxicity in NCG mouse assessed as effect on HCT level at 15 mg/kg, ip measured after 14 days. Type of data set: organism-based. Particulars: in vivo, 336 h, time 14 day.
Data set [19] can be described thus: Toxicity in NCG mouse assessed as effect on RBC level at 15 mg/kg, ip measured after 14 days. Type of data set: organism-based, Erythrocyte. The note with it: in vivo, 336 h, time 14 day.
The nature of data set [20]: Toxicity in NCG mouse assessed as pathological change in kidney at 15 mg/kg, ip measured after 14 days by H and E staining based analysis. The note with it: in vivo, 336 h, time 14 day. Type of data set: organism-based.
Data set [21] relates to HuH-1. Briefly: Antitumor activity against human HuH-1 cells xenografted in NCG mouse model assessed as increase in tumor cell death at 15 mg/kg, ip administered every other day for 14 days. The data set is classed as functional, organism-based. The note with it: time 14.0 day. A general note: Xenograft models place foreign cells or tissue in a host animal.
Data set [22] concerns HuH-1. As to the kind of experiment: Antitumor activity against human HuH-1 cells xenografted in NCG mouse model assessed as reduction in tumor cell density at 15 mg/kg, ip administered every other day for 14 days. The data set is classed as functional, organism-based. The note with it: time 14.0 day.
Data set [23] in a line: Toxicity in NCG mouse assessed as pathological change in liver at 15 mg/kg, ip measured after 14 days by H and E staining based analysis. The data set is classed as organism-based. Particulars: in vivo, 336 h, time 14 day.
Data set [24] concerns HuH-1. As to the kind of experiment: Antitumor activity against human HuH-1 cells xenografted in NCG mouse model assessed as reduction in tumor weight at 15 mg/kg, ip administered every other day for 14 days. The data set is classed as functional, organism-based. The note with it: time 14.0 day.
Data set [25] can be described thus: Toxicity in NCG mouse assessed as effect on MCV level at 15 mg/kg, ip measured after 14 days. The note with it: in vivo, 336 h, time 14 day. Type of data set: organism-based.
Data set [26] can be described thus: Toxicity in NCG mouse assessed as effect on LDH level at 15 mg/kg, ip measured after 14 days. The data set is classed as organism-based. The note with it: in vivo, 336 h, time 14 day.
A short description of data set [27]: Toxicity in NCG mouse assessed as effect on HGB level at 15 mg/kg, ip measured after 14 days. Type of data set: organism-based. Particulars: in vivo, 336 h, time 14 day.
Data set [28] can be described thus: Toxicity in NCG mouse assessed as effect on ALT level at 15 mg/kg, ip measured after 14 days. Type of data set: organism-based. The note with it: in vivo, 336 h, time 14 day.
The test system of data set [29] is HuH-1. Briefly: Antitumor activity against human HuH-1 cells xenografted in NCG mouse model assessed as increase in tumor cell death at 20 mg/kg, ip administered every other day for 14 days. The note with it: time 14.0 day. The data set is classed as functional, organism-based.
The test system of data set [30] is HuH-1. Briefly: Antitumor activity against human HuH-1 cells xenografted in NCG mouse model assessed as reduction in tumor cell density at 20 mg/kg, ip administered every other day for 14 days. Type of data set: functional, organism-based. Particulars: time 14.0 day.
Data set [31] has as its system HuH-1. Briefly: Induction of autophagy in human HuH-1 cells assessed as increase in LC3BI expression by […] based analysis. Type of data set: functional, cell-based.
Data set [32] concerns HuH-1. Briefly: Induction of autophagy in human HuH-1 cells assessed as increase in ATG5 expression by […] based analysis. Type of data set: functional, cell-based.
For data set [33], the system named is HuH-1. Briefly: Induction of autophagy in human HuH-1 cells assessed as downregulation of P62 expression by […] based analysis. The data set is classed as functional, cell-based.
Data set [34] has as its system HuH-1. Briefly: Induction of autophagy in human HuH-1 cells assessed as increase in LC3BII expression by […] based analysis. Type of data set: functional, cell-based.

As usually defined, the IC50 is the concentration needed to halve the response being measured. Take `COC(=O)[C@H](CCCCNC(=O)CN1C(=O)C(=O)c2cc(OC)ccc21)NC(=O)CN1C(=O)C(=O)c2cc(OC)ccc21`: the IC50 at 48 h in data set [1] was > 100 µM. For the same compound, the IC50 in data set [2], in [3], in data set [4], in data set [5], in [6] and in [7] was > 100 µM throughout. Besides, the IC50 in [8] is > 100 µM.

With `COC(=O)[C@H](CCCCNC(=O)CN1C(=O)C(=O)c2cc(Br)ccc21)NC(=O)CN1C(=O)C(=O)c2cc(Br)ccc21`, the Activity entry in data set [9], in data set [10], in data set [11], in [12], in data set [13] and in [14] was “Non-Toxic” throughout. The Activity entry in [15], in [17], in [18], in data set [19], in data set [20] and in data set [23] was “Non-Toxic” each time. Moreover, the Activity entry in [25], in data set [26], in [27] and in data set [28] was “Non-Toxic” in each case. The half-inhibitory concentration (IC50) at 48 h in [1] was > 100 µM. The IC50 in [2] is 17.1 µM; in data set [3] it was > 100 µM; in [4], 8.27 µM; in data set [5] it was > 100 µM; in data set [6] it was > 100 µM; in data set [7] it was 16.9 µM. Besides, in data set [8], the IC50 is > 100 µM. Further, the result in [16], in [21], in data set [22] and in data set [24] was Active.

As to `COC(=O)[C@H](CCCCNC(=O)CN1C(=O)C(=O)c2ccccc21)NC(=O)CN1C(=O)C(=O)c2ccccc21`, the IC50 at 48 h in data set [1] is > 100 µM. Moreover, the IC50 in [2], in [3], in data set [4], in data set [5], in data set [6] and in data set [7] was > 100 µM each time. In addition, in data set [8], the IC50 is > 100 µM.

`CNC(=O)c1cc(Oc2ccc(NC(=O)Nc3ccc(Cl)c(C(F)(F)F)c3)cc2)ccn1` [SORAFENIB]: the result in data set [29] and in data set [30] was Active. Further, the IC50 in [2] is 9.63 µM; in [4], 14.7 µM; in [7], 10.7 µM.

As for `COC(=O)[C@H](CCCCNC(=O)CN1C(=O)C(=O)c2cc(F)ccc21)NC(=O)CN1C(=O)C(=O)c2cc(F)ccc21`, in data set [1], the IC50 at 48 h is > 100 µM. The IC50 in data set [2], in data set [3], in [4], in [5], in data set [6] and in [7] was > 100 µM throughout. Besides, the IC50 in data set [8] is > 100 µM. For the same compound, the result in [31], in [32], in [33] and in data set [34] was Active.

For the compound `COC(=O)[C@H](CCCCNC(=O)CN1C(=O)C(=O)c2cc(Cl)ccc21)NC(=O)CN1C(=O)C(=O)c2cc(Cl)ccc21`, the IC50 at 48 h in data set [1] was > 100 µM. Moreover, the IC50 in data set [2] is 26.4 µM; in data set [3], > 100 µM; in [4] it was 29.9 µM; in data set [5] it was > 100 µM; in data set [6], > 100 µM; in data set [7], 45.8 µM. The IC50 in [8] was > 100 µM.

Turning to `COC(=O)[C@H](CCCCNC(=O)CN1C(=O)C(=O)c2cc(C)ccc21)NC(=O)CN1C(=O)C(=O)c2cc(C)ccc21`, the IC50 at 48 h in [1] was > 100 µM. For the same compound, the IC50 was 35.1 µM in [2]; > 100 µM in [3]; 32.9 µM in data set [4]; > 100 µM in data set [5]; > 100 µM in data set [6]; > 100 µM in data set [7]. The IC50 in data set [8] was > 100 µM.
